The source of these data is patent US11447493B2 (Kinnate Biopharma Inc., priority 2018, dated 2022).

Type in all cases: biochemical
One assay concerns the target CDK12 wt/CycK (Homo sapiens (Human), UniProt Q9NYV4). Put plainly: Radiometric protein kinase assay (33PanQinase), Assay Condition A (thiol containing). The conditions noted are these: thiol containing (1.2 mM DTT), ATP 0.3 μM. An outline of the steps:
(§1)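 Recombinant human kinases assayed radiometrically (33PanQinase) with 33P-ATP incorporation into substrate, 60 min at 30° C, thiol-containing buffer, 1% DMSO final. Ten concentrations from 1×10^−04M to 3×10^−09M tested in singlicate. Residual activity normalized to no-enzyme and no-inhibitor controls; IC50 by least-squares fit.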

Another assay deals with CDK12 (Homo sapiens (Human), UniProt Q9NYV4). The assay is described as follows: Radiometric protein kinase assay (33PanQinase), Assay Condition B (thiol-free). The conditions noted are these: thiol-free (1 mM TCEP). On the procedure: The IC50 profile of compounds was determined using one protein kinase in a customized, thiol free assay. […] Prior to testing, the 1×10^−03 M stock solutions in column 2 of the master plates were subjected to a serial, semi-logarithmic dilution using 100% DMSO as a solvent. […] Column 1 and 7 were filled with 100% DMSO as controls. Subsequently, 2×10 microliter from each well of the serial diluted copy plates were aliquoted with a 96 channel pipettor into two identical sets of “compound dilution plates”. All plates were barcoded for automated identification and tracking purposes. […] All compounds were stored as powder until being solubilized in DMSO. Solubilized compounds were stored as 1×10^−02M/100% DMSO stock solutions. Prior to the assay process, 90 microliters of H2O were added to each well of a set of compound dilution plates. To minimize potential precipitation, the H2O was added to each plate only a few minutes before the transfer of the compound solutions into the assay plates. Each plate was shaken thoroughly, resulting in compound dilution plates with a final of 10% DMSO. For each assay, 5 microliters of solution from each well of the compound dilution plates/10% DMSO were transferred into the assay plate. The final volume of the assay was 50 μl. All compounds were tested at 10 final assay concentrations in the range from 1×10^−05M to 3×10^−10 M, in singlicate. The final DMSO concentration in the reaction cocktails was 1% in all cases. […] This was done so there would be no interference with the key cysteines in the proteins of interest.
Chain of CDK12 (Q9NYV4 whole entry): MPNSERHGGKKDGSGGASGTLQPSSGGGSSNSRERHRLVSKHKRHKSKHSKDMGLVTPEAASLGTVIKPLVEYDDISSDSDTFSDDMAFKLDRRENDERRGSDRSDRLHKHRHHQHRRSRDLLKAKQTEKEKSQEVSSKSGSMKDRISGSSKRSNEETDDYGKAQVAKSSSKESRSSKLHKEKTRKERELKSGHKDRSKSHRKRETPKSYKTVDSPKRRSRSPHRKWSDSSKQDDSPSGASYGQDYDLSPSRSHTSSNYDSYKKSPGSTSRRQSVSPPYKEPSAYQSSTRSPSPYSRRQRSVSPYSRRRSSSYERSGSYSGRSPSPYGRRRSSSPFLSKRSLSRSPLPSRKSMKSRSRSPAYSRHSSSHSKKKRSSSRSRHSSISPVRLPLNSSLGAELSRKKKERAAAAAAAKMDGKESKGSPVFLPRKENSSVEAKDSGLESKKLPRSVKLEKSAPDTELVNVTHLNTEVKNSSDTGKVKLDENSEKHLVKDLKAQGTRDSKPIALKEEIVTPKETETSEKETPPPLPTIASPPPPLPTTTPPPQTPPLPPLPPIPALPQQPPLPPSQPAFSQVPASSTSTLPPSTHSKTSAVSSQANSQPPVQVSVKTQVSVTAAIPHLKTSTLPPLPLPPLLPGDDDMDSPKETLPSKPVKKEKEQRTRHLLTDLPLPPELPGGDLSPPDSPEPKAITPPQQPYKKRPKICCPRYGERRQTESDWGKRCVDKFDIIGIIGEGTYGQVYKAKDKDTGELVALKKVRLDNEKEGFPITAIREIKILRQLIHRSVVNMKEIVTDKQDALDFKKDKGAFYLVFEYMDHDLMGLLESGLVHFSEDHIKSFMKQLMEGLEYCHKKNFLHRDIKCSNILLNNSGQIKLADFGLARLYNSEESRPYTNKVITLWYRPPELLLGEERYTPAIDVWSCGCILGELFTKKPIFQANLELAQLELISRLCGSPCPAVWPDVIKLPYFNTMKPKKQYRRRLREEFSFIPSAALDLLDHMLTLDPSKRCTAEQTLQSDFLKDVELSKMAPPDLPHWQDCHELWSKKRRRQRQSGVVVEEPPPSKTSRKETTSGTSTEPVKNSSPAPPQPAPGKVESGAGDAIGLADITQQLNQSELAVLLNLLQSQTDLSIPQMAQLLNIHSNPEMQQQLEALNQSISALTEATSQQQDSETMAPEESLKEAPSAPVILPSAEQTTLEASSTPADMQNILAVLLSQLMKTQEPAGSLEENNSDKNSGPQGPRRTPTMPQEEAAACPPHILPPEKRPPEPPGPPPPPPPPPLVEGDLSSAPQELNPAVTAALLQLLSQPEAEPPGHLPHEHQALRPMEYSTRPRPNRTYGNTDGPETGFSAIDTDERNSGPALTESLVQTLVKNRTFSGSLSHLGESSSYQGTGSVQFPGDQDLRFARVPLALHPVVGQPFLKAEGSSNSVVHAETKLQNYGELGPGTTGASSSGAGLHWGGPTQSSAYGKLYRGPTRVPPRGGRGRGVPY
Chain of CDK12 (O75909 whole entry partner): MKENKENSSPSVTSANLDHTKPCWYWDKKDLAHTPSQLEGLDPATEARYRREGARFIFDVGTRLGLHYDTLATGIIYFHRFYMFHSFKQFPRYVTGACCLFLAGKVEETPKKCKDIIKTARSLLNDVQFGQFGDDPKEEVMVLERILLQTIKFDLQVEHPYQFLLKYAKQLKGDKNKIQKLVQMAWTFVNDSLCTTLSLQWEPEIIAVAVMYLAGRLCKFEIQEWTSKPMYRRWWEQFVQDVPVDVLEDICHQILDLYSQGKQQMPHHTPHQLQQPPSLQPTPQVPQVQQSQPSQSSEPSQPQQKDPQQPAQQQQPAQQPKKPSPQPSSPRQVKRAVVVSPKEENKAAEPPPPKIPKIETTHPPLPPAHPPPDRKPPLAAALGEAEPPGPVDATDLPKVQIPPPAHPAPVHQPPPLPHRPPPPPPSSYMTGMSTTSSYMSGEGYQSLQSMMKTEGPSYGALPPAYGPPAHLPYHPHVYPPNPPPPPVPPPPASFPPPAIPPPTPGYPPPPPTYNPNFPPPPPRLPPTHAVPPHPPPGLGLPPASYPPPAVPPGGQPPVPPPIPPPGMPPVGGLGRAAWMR
For data analysis, the median value of the counts in column 1 (n=8) of each assay plate was defined as “low control”. This value reflects unspecific binding of radioactivity to the plate in the absence of a protein kinase but in the presence of the substrate. The median value of the counts in column 7 of each assay plate (n=8) was taken as the “high control”, i.e. full activity in the absence of any inhibitor. The difference between high and low control was taken as 100% activity. As part of the data evaluation the low control value from a particular plate was subtracted from the high control value as well as from all 80 “compound values” of the corresponding plate. The residual activity (in %) for each well of a particular plate was calculated by using the following formula: Res. Activity (%)=100×[(cpm of compound−low control)/(high control−low control)]
The fitting method used was a least-squares fit.

The next assay has as its target CDK2/CycA2 (Homo sapiens (Human), UniProt P24941). Put plainly: Radiometric protein kinase assay (33PanQinase), Assay Condition A (thiol containing). The following applies: thiol containing (1.2 mM DTT), ATP 0.3 μM. An outline of the steps: as §1
The target in another assay is CDK2 (Homo sapiens (Human), UniProt P24941). The assay is described as follows: Radiometric protein kinase assay (33PanQinase), Assay Condition B (thiol-free). The conditions noted are these: thiol-free (1 mM TCEP). On the procedure:
The IC50 profile of compounds was determined using one protein kinase in a customized, thiol free assay. […] Prior to testing, the 1×10^−03 M stock solutions in column 2 of the master plates were subjected to a serial, semi-logarithmic dilution using 100% DMSO as a solvent. […] Column 1 and 7 were filled with 100% DMSO as controls. Subsequently, 2×10 microliter from each well of the serial diluted copy plates were aliquoted with a 96 channel pipettor into two identical sets of “compound dilution plates”. All plates were barcoded for automated identification and tracking purposes. […] All compounds were stored as powder until being solubilized in DMSO. Solubilized compounds were stored as 1×10^−02M/100% DMSO stock solutions. Prior to the assay process, 90 microliters of H2O were added to each well of a set of compound dilution plates. To minimize potential precipitation, the H2O was added to each plate only a few minutes before the transfer of the compound solutions into the assay plates. Each plate was shaken thoroughly, resulting in compound dilution plates with a final of 10% DMSO. For each assay, 5 microliters of solution from each well of the compound dilution plates/10% DMSO were transferred into the assay plate. The final volume of the assay was 50 μl. All compounds were tested at 10 final assay concentrations in the range from 1×10^−05M to 3×10^−10 M, in singlicate. The final DMSO concentration in the reaction cocktails was 1% in all cases. […]
For data analysis, the median value of the counts in column 1 (n=8) of each assay plate was defined as “low control”. This value reflects unspecific binding of radioactivity to the plate in the absence of a protein kinase but in the presence of the substrate. […] The residual activity (in %) for each well of a particular plate was calculated by using the following formula: Res. Activity (%)=100×[(cpm of compound−low control)/(high control−low control)]
The residual activities for each concentration and the compound IC50 values were calculated using Quattro Workflow V3.1.1 (Quattro Research GmbH, Munich, Germany; www.quattro-research.com). […]

In the next assay the target is CDK7/CycH/MAT1 (Homo sapiens (Human), UniProt P50613). Put plainly: Radiometric protein kinase assay (33PanQinase), Assay Condition A (thiol containing). The following applies: thiol containing (1.2 mM DTT), ATP 3.0 μM. In a few lines: as §1
Chain of CDK7/CycH/MAT1 (P50613 whole entry): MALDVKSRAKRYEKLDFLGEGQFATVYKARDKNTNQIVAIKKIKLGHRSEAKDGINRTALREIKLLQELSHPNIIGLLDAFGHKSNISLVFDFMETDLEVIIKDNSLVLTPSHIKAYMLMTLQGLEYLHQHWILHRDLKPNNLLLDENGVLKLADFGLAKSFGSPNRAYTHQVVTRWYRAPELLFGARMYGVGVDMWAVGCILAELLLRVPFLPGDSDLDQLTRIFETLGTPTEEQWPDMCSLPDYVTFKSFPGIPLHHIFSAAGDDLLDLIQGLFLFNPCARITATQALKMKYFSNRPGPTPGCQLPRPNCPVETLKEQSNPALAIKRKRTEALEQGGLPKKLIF
Chain of CDK7/CycH/MAT1 (P51946 whole entry partner): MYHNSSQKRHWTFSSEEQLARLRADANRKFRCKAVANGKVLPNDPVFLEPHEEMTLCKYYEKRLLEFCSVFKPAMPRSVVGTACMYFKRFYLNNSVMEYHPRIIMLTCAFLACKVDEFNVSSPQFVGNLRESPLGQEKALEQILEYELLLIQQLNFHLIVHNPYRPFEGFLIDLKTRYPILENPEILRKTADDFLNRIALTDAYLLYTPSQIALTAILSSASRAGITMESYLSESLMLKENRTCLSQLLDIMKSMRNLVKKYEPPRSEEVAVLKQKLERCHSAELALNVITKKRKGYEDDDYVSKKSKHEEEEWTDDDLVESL
Chain of CDK7/CycH/MAT1 (P51948 whole entry partner): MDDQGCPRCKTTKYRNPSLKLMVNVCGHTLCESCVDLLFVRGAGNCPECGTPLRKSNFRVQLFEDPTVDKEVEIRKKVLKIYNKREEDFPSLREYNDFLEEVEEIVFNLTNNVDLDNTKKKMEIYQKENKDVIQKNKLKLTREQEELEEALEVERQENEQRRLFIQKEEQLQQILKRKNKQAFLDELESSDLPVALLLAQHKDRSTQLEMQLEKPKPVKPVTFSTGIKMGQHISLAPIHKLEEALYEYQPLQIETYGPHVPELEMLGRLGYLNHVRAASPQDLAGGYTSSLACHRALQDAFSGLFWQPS

In general, IC50 refers to the concentration that gives 50% inhibition. Read a low IC50 as higher potency.

Chain of CDK12 wt/CycK (Q9NYV4 whole entry): as the sequence (Q9NYV4 whole entry) above
Chain of CDK12 wt/CycK (O75909 whole entry partner): as the sequence (O75909 whole entry partner) above

Regarding `C=CC(=O)Nc1ccc(C(=O)N2CC[C@@H](Nc3ncc4ccccc4n3)C2)cc1` [Example 26, (R)-N-(4-(3-(quinazolin-2-ylamino)pyrrolidine-1-carbonyl)phenyl)acrylamide], the 50% inhibitory concentration (IC50) was at most 0.1 µM against CDK12 wt/CycK and below 0.1 µM against CDK12.
The like results for `C=CC(=O)Nc1ccc(C(=O)N2CC[C@@H](Nc3ncc4cc(F)ccc4n3)C2)cc1` [Example 28, (R)-N-(4-(3-((6-fluoroquinazolin-2-yl)amino)pyrrolidine-1-carbonyl)phenyl)acrylamide] were, in that order, at most 0.1 µM and below 0.1 µM.
The like results for `C=CC(=O)Nc1ccc(C(=O)N2CC[C@@H](Nc3ncc4ccc(S(C)(=O)=O)cc4n3)C2)cc1` [Example 33, (R)-N-(4-(3-((7-(methylsulfonyl)quinazolin-2-yl)amino)pyrrolidine-1-carbonyl)phenyl)acrylamide] were, in that order, at most 0.1 µM and below 0.1 µM.
Turning to `C=CC(=O)Nc1ccc(C(=O)N2CC[C@@H](Nc3ncc4ccc(OC)cc4n3)C2)cc1` [Example 34, (R)-N-(4-(3-((7-methoxyquinazolin-2-yl)amino)pyrrolidine-1-carbonyl)phenyl)acrylamide], the IC50 against CDK12 wt/CycK was at most 0.1 µM; against CDK12, below 0.1 µM.
Regarding `C=CC(=O)Nc1ccc(C(=O)N2CC[C@@H](Nc3ncc4ccc(C#N)cc4n3)C2)cc1` [Example 37, (R)—N-(4-(3-((7-cyanoquinazolin-2-yl)amino)pyrrolidine-1-carbonyl)phenyl)acrylamide], the values for the IC50 against CDK12 wt/CycK and on CDK12 were at most 0.1 µM and below 0.1 µM, respectively.
The matching figures for `C=CC(=O)Nc1ccc(C(=O)N2CC[C@@H](Nc3ncc4ccc(=O)n(C(C)C)c4n3)C2)cc1` [Example 43, (R)—N-(4-(3-((8-isopropyl-7-oxo-7,8-dihydropyrido[2,3-d]pyrimidin-2-yl)amino)pyrrolidine-1-carbonyl)phenyl)acrylamide]: at most 0.1 µM and below 0.1 µM.
For the compound `CCC(=O)Nc1ccc(C(=O)N2CC[C@@H](Nc3ncc4ccccc4n3)C2)cc1` [Example 44, (R)—N-(4-(3-(quinazolin-2-ylamino)pyrrolidine-1-carbonyl)phenyl)propionamide], the IC50 on CDK12 wt/CycK and against CDK12 was 0.1 to 1 µM each time.
For the compound `C=CC(=O)Nc1ccc(C(=O)N2CC[C@@H](Nc3ncc4ccccc4n3)C2)cc1F` [Example 62, (R)—N-(2-fluoro-4-(3-(quinazolin-2-ylamino)pyrrolidine-1-carbonyl)phenyl)acrylamide], the half-maximal inhibitory concentration (IC50) at CDK12 wt/CycK is at most 0.1 µM; against CDK12, below 0.1 µM.
`C=CC(=O)N(C)c1ccc(C(=O)N2CC[C@@H](Nc3ncc4ccccc4n3)C2)cc1` [Example 74, (R)—N-methyl-N-(4-(3-(quinazolin-2-ylamino)pyrrolidine-1-carbonyl)phenyl)acrylamide]: the IC50 against CDK2/CycA2 and on CDK2 was 1 to 10 µM in each case.
Take `C=CC(=O)N1CCOc2cc(C(=O)N3CC[C@@H](Nc4ncc5ccccc5n4)C3)ccc21` [Example 80, (R)-1-(7-(3-(quinazolin-2-ylamino)pyrrolidine-1-carbonyl)-2H-benzo[b][1,4]oxazin-4(3H)-yl)prop-2-en-1-one]: the IC50 was 0.1 to 1 µM against CDK7/CycH/MAT1, 0.1 to 1 µM on CDK2/CycA2 and at most 0.1 µM against CDK12 wt/CycK.
`COc1cc(C(=O)N2CC[C@@H](Nc3ncc4ccccc4n3)C2)ccc1NC(=O)/C=C/CN(C)C` [Example 81, (R,E)-4-(dimethylamino)-N-(2-methoxy-4-(3-(quinazolin-2-ylamino)pyrrolidine-1-carbonyl)phenyl)but-2-enamide]: the IC50 lay within 0.1 to 1 µM on CDK7/CycH/MAT1, 1 to 10 µM against CDK2/CycA2 and 0.1 to 1 µM against CDK12 wt/CycK.
Turning to `CN(C)C/C=C/C(=O)Nc1ccc(C(=O)N2CC[C@@H](Nc3ncc4ccccc4n3)C2)cc1Cl` [Example 82, (R,E)-N-(2-chloro-4-(3-(quinazolin-2-ylamino)pyrrolidine-1-carbonyl)phenyl)-4-(dimethylamino)but-2-enamide], the IC50 against CDK7/CycH/MAT1 was 0.1 to 1 µM; against CDK2/CycA2, 1 to 10 µM; on CDK12 wt/CycK, 0.1 to 1 µM.
As for `CN(C)C/C=C/C(=O)N1CCOc2cc(C(=O)N3CC[C@@H](Nc4ncc5ccccc5n4)C3)ccc21` [Example 84, (R,E)-4-(dimethylamino)-1-(7-(3-(quinazolin-2-ylamino)pyrrolidine-1-carbonyl)-2H-benzo[b][1,4]oxazin-4(3H)-yl)but-2-en-1-one], the results for the IC50 against CDK7/CycH/MAT1, at CDK2/CycA2 and against CDK12 wt/CycK were 0.1 to 1 µM, 1 to 10 µM and 0.1 to 1 µM, respectively.
For `C=CC(=O)Nc1cccc(C(=O)N2CC[C@@H](Nc3ncc4ccccc4n3)C2)c1` [Example 87, (R)—N-(3-(3-(quinazolin-2-ylamino)pyrrolidine-1-carbonyl)phenyl)acrylamide], the IC50 at CDK7/CycH/MAT1, at CDK2/CycA2 and on CDK12 wt/CycK was 0.1 to 1 µM in each case.
In the case of `CN(C)C/C=C/C(=O)N1CCCc2cc(C(=O)N3CC[C@@H](Nc4ncc5ccccc5n4)C3)ccc21` [Example 89, (R,E)-4-(dimethylamino)-1-(6-(3-(quinazolin-2-ylamino)pyrrolidine-1-carbonyl)-3,4-dihydroquinolin-1(2H)-yl)but-2-en-1-one], the IC50 at CDK7/CycH/MAT1 was in the range of 0.1 to 1 µM; at CDK2/CycA2 it was 1 to 10 µM; on CDK12 wt/CycK, 0.1 to 1 µM.
As for `C=CC(=O)Nc1ccc(C(=O)N2CC[C@@H](Nc3ncc4cccc(F)c4n3)C2)cc1` [Example 90, (R)—N-(4-(3-((8-fluoroquinazolin-2-yl)amino)pyrrolidine-1-carbonyl)phenyl)acrylamide], the IC50 is 1 to 10 µM against CDK7/CycH/MAT1, 1 to 10 µM on CDK2/CycA2 and 0.1 to 1 µM against CDK12 wt/CycK.
Regarding `C=CC(=O)Nc1ccc(C(=O)N2CC[C@@H](Nc3ncc4c(F)cccc4n3)C2)cc1` [Example 91, (R)—N-(4-(3-((5-fluoroquinazolin-2-yl)amino)pyrrolidine-1-carbonyl)phenyl)acrylamide], the IC50 was 1 to 10 µM against CDK7/CycH/MAT1, 1 to 10 µM at CDK2/CycA2 and 0.1 to 1 µM at CDK12 wt/CycK.
With `C=CC(=O)Nc1ccc(C(=O)N2CC[C@@H](Nc3ncc4cc(F)ccc4n3)C2)cc1C` [Example 92, (R)—N-(4-(3-((6-fluoroquinazolin-2-yl)amino)pyrrolidine-1-carbonyl)-2-methylphenyl)acrylamide], the IC50 was 1 to 10 µM on CDK7/CycH/MAT1, 1 to 10 µM against CDK2/CycA2 and at most 0.1 µM at CDK12 wt/CycK.
For `C=CC(=O)Nc1ccc(C(=O)N2CC[C@@H](Nc3ncc4ccc(S(C)(=O)=O)cc4n3)C2)cc1C` [Example 93, (R)—N-(2-methyl-4-(3-((7-(methylsulfonyl)quinazolin-2-yl)amino)pyrrolidine-1-carbonyl)phenyl)acrylamide], the concentration for half-maximal inhibition (IC50) on CDK7/CycH/MAT1 was 1 to 10 µM; at CDK2/CycA2 it was 0.1 to 1 µM; at CDK12 wt/CycK, at most 0.1 µM.
The matching figures for `C=C(CC)C(=O)Nc1ccc(C(=O)N2CC[C@@H](Nc3ncc4ccccc4n3)C2)cc1` [Example 94, (R)-2-methylene-N-(4-(3-(quinazolin-2-ylamino)pyrrolidine-1-carbonyl)phenyl)butanamide]: 1 to 10 µM, 1 to 10 µM and 0.1 to 1 µM.
With `C=CS(=O)(=O)Nc1ccc(C(=O)N2CC[C@@H](Nc3ncc4ccccc4n3)C2)cc1` [Example 95, (R)—N-(4-(3-(quinazolin-2-ylamino)pyrrolidine-1-carbonyl)phenyl)ethenesulfonamide], the IC50 lay within 0.1 to 1 µM on CDK7/CycH/MAT1, 1 to 10 µM against CDK2/CycA2 and 0.1 to 1 µM against CDK12 wt/CycK.
On to `C=CC(=O)Nc1ccc(C(=O)N2C[C@H](Nc3ncc4ccccc4n3)[C@@H](C)C2)cc1` [Example 96, N-(4-((3S,4R)-3-methyl-4-(quinazolin-2-ylamino)pyrrolidine-1-carbonyl)phenyl)acrylamide], for which the results for the IC50 on CDK7/CycH/MAT1, at CDK2/CycA2 and at CDK12 wt/CycK were 10 to 30 µM, 30 to 100 µM and 1 to 10 µM, respectively.
